From patent publication US12678431B2, “Pharmaceutical composition for treatment of dementia and cerebrovascular disorders” (FUSO PHARMACEUTICAL INDUSTRIES, LTD., priority 2019, dated 2026)

Key:
Type in all cases: in vivo
[1] = tested on: myelin basic protein (MBP); experiment: Test for suppression against reduction of a myelin basic protein (MBP), brain section immunostaining in vascular dementia disease model mouse; settings: BCAS model mouse; 100 μmol/kg oral or intraperitoneal, three times/week; brain frozen section, 28 days after the surgery; FIG. 3
From the text: (§1) Firstly, according to a general preparation method for vascular dementia disease model mouse (for example, Shibata M, Ohtani R, Ihara M, et al., Stroke 35: 2598-2603, 2004; or Ihara M, Taguchi A, Maki T, et al., Methods Mol Biol 1135: 95-102, 2014), the mouse was equipped with a 0.18 mm microcoil into a right common carotid artery of the mice and a 0.16 mm microcoil into a left common carotid artery thereof.
(§2) Next, a vascular dementia disease model mouse (hereinafter sometimes referred to as Bilateral common artery stenosis (BCAS) model) was prepared according to the below-mentioned schedule as shown in FIG. 1.
Ethoxyquin or methyldopa were administered by an oral administration or an intraperitoneal administration in a dose of 100 μmol/kg by a ratio of three times/week until the completion of the test (for example, for 1 to 4 weeks). Here the test results in the case where a healthy mouse as control was used is shown.
The vascular dementia disease model mouse which was prepared in the Test Example 1 was euthanized on 28 days after the surgery. The frozen section of the brain of the mice (N (number of animal)=6 to 8 animals) were immobilized in cold acetone for 10 minutes, and washed with PBS for 5 minutes (× three times). […]

[2] = tested on: matrix metalloproteinase 9 (MMP-9); experiment: Test for suppression of blood-brain barrier disruption (western blotting, MMP-9 antibody) in vascular dementia disease model mouse; settings: BCAS model mouse; 100 μmol/kg oral or intraperitoneal, three times/week; hippocampus and striatal tissue, 7 days after the surgery; FIG. 2
From the text: as §1
Next, a vascular dementia disease model mouse (hereinafter sometimes referred to as Bilateral common artery stenosis (BCAS) model) was prepared according to the below-mentioned schedule as shown in FIG. 1. […]
The vascular dementia disease model mouse which was prepared in the Test Example 1 was euthanized on 7 days after the surgery. […] The homogenate was crushed with ultrasonic while cooling on ice, and after centrifuging, the supernatant was subjected to a protein quantification by a bicinchoninic acid (BCA) method. Thereafter, the prepared protein sample was evaluated on an effect on suppression of blood-brain barrier disruption according to a western blotting method using antibody against matrix metalloproteinase 9 (MMP-9) similarly to a generally known method. […]

[3] = tested on: vascular dementia disease model mouse (BCAS model); experiment: Test for influence on cerebral blood flow (Laser-Doppler blood flow meter) in vascular dementia disease model mice; settings: 50, 75 or 100 μmol/kg oral or intraperitoneal, three times/week, measured up to 14 days after surgery, FIG. 5
From the text: as §1, §2
In the vascular dementia disease model mice (N (number of animals)=6 to 8 animals) that were prepared in the Test Example 1, a cerebral blood flow of a boundary region (blegma) between middle cerebral artery and anterior cerebral artery was measured at immediately before ischemic surgery, immediately after ischemic surgery, after 1 day, after 4 days, after 7 days or after 14 days. A Laser-Doppler blood flow meter was fixed on a skull, and a cerebral blood flow was measured, and the cerebral blood flow was evaluated as a ratio thereof to cerebral blood flow immediately before ischemic surgery. […]

[4] = tested on: vascular dementia disease model mouse (BCAS model); experiment: Novel object recognition test in vascular dementia disease model mouse; settings: 100 μmol/kg oral or intraperitoneal, three times/week, FIG. 4
From the text: as §1, §2
Ethoxyquin or methyldopa were administered by an oral administration or an intraperitoneal administration in a dose of 100 μmol/kg by a ratio of three times/week until the completion of the test (for example, for 1 to 4 weeks). […]
A novel object recognition test was conducted by utilizing rodent's character of seeking novelty. […] After a certain times were passed, one of the object was changed by a novel object, and the animals were placed in the same observation box again, and the time exploring an object was measured for 10 minutes (Test trial). The time exploring a novel object or the time exploring the learned object were defined as “N” or “F” respectively, and were calculated by the following equation: the Exploration time=N+F, and the Discrimination Index=(N−F)/(N+F). […]

Compound	effect on suppression of the reduction of myelin basic protein [1]	effect on suppressing a blood-brain barrier disruption (MMP-9 western blotting) [2]	influence on cerebral blood flow (ratio to flow immediately before ischemic surgery) [3]	novel object recognition (cognitive dysfunction, long-term spatial memory; Discrimination Index) [4]
CCOc1ccc2c(c1)C(C)=CC(C)(C)N2 [Compound 1, 6-Ethoxy-2,2,4-trimethyl-1,2-dihydroquinoline]	suggested an effect on a suppression of the reduction of myelin basic protein	suggested an effect on suppressing a blood-brain barrier disruption	do not affect any cerebral blood flow	showed an improved cognitive dysfunction in a long-term spatial memory
C[C@](N)(Cc1ccc(O)c(O)c1)C(=O)O [Compound 2, Methyldopa sesquihydrates]	suggested an effect on a suppression of the reduction of myelin basic protein	suggested an effect on suppressing a blood-brain barrier disruption	do not affect any cerebral blood flow	showed an improved cognitive dysfunction in a long-term spatial memory
